Source: ChEMBL document CHEMBL2040764, “Bioactive briarane diterpenoids from the South China Sea gorgonian Dichotella gemmacea” (Bioorg Med Chem Lett, 2012)
The source made the active and inactive calls. The calls are words filed in the database; no cut-off is given here.

Experiments:
[1] = system: A549; assay: Cytotoxicity against human A549 cells by MTT assay; type: functional, cell-based
[2] = system: Zymoseptoria tritici (Septoria tritici); assay: Antifungal activity against Septoria tritici at 2 mg/ml by agar diffusion test; conditions: read-out: DIZ
[3] = system: Microbotryum violaceum; assay: Antifungal activity against Microbotryum violaceum at 2 mg/ml by agar diffusion test; type: functional; conditions: read-out: DIZ
[4] = system: MG-63; assay: Cytotoxicity against human MG63 cells by MTT assay; type: functional, cell-based
[5] = system: Priestia megaterium; assay: Antibacterial activity against Bacillus megaterium at 2 mg/ml by agar diffusion test; type: functional, organism-based
[6] = system: Escherichia coli; assay: Antibacterial activity against Escherichia coli at 2 mg/ml by agar diffusion test; type: functional; conditions: read-out: DIZ
[7] = system: Zymoseptoria tritici; assay: Antifungal activity against Septoria tritici at 0.05 mg by agar diffusion test; conditions: read-out: DIZ
[8] = system: Escherichia coli; assay: Antibacterial activity against Escherichia coli at 0.05 mg by agar diffusion test; type: functional; conditions: read-out: DIZ
[9] = system: Priestia megaterium; assay: Antibacterial activity against Bacillus megaterium at 0.05 mg by agar diffusion test; type: functional; conditions: read-out: DIZ
[10] = system: Microbotryum violaceum; assay: Antifungal activity against Microbotryum violaceum at 0.05 mg by agar diffusion test; type: functional; conditions: read-out: DIZ

Row | SMILES | IC50 [1] | zone of inhibition at 2000 µg/mL [2] | zone of inhibition at 2000 µg/mL [3] | IC50 [4] | Activity [5] | zone of inhibition at 2000 µg/mL [6] | zone of inhibition at 50 µg/disc [7] | zone of inhibition at 50 µg/disc [8] | zone of inhibition at 50 µg/disc [9] | zone of inhibition at 50 µg/disc [10]
1 | C=C1[C@H](OC(C)=O)C[C@H](OC(C)=O)[C@@]2(C)[C@@H](OC(C)=O)C[C@@H](OC(=O)CC(C)C)[C@]3(CO3)[C@@H]2[C@H](OC(C)=O)[C@]2(O)[C@@H](C)C(=O)O[C@H]2[C@H]1Cl (relative stereo) | 16.9 µM | 14 mm | 14 mm | 18 µM | inactive | 19 mm |  |  |  | 
2 | C=C1[C@H](OC(C)=O)C[C@H](OC(C)=O)[C@@]2(C)[C@@H](OC(=O)CC(C)C)C[C@@H](OC(C)=O)[C@]3(CO3)[C@@H]2[C@H](OC(C)=O)[C@]2(O)[C@@H](C)C(=O)O[C@H]2[C@H]1Cl (relative stereo) | 18 µM | 9.5 mm | 9.5 mm | 15.1 µM | inactive | 20 mm |  |  |  | 
3 | C=C1[C@H](OC(C)=O)C[C@H](OC(C)=O)[C@@]2(C)[C@@H](OC(C)=O)C[C@@H](OC(C)=O)[C@]3(CO3)[C@@H]2[C@H](OC(C)=O)[C@]2(O)[C@@H](C)C(=O)O[C@H]2[C@H]1Cl (relative stereo) | < 1.5 µM | 13 mm | 11 mm | 20.5 µM | inactive | 20 mm |  |  |  | 
4 | C=C1[C@H](OC(=O)CC(C)C)C[C@H](OC(C)=O)[C@@]2(C)[C@@H](OC(C)=O)[C@@H](OC(=O)CC(C)C)[C@@H](OC(C)=O)[C@]3(CO3)[C@@H]2[C@H](OC(C)=O)[C@]2(O)[C@@H](C)C(=O)O[C@H]2[C@H]1Cl (relative stereo) | 19.1 µM | 17 mm | 13 mm | 17.4 µM | inactive | 17 mm |  |  |  | 
5 | C=C1[C@H]2O[C@]3([C@@H](C)C(=O)O[C@H]3[C@H]1Cl)[C@@H](OC(C)=O)[C@H]1[C@@]3(CO3)[C@H](OC(C)=O)C[C@H](OC(C)=O)[C@]1(C)[C@@H](OC(C)=O)[C@H]2OC(C)=O (relative stereo) | > 45.7 µM | 12 mm | 15 mm | > 45.7 µM | inactive | 20 mm |  |  |  | 
6 | C=C1[C@H]2O[C@]3([C@@H](C)C(=O)O[C@H]3[C@H]1Cl)[C@@H](OC(C)=O)[C@H]1[C@@]3(CO3)[C@H](OC(=O)CC(C)C)C[C@H](OC(C)=O)[C@]1(C)[C@@H](OC(C)=O)[C@H]2OC(C)=O (relative stereo) | < 0.3 µM | 13 mm | 11 mm | < 0.3 µM | inactive | 34 mm |  |  |  | 
7 | COc1cccc2c1C(=O)c1c(O)c3c(c(O)c1C2=O)C[C@@](O)(C(=O)CO)C[C@@H]3O[C@H]1C[C@H](N)[C@H](O)[C@H](C)O1 [DOXORUBICIN] |  |  |  | 3.2 µM |  |  |  |  |  | 
8 | C=C1CC[C@H](OC(C)=O)[C@@]2(C)[C@@H](OC(C)=O)C[C@@H](OC(=O)CC(C)C)[C@]3(CO3)[C@@H]2[C@H](OC(C)=O)[C@]2(O)[C@@H](C)C(=O)O[C@H]2[C@H]1Cl [JUNCENOLIDE J] | > 46.7 µM | 12 mm | 10 mm | > 46.7 µM | inactive | 11 mm |  |  |  | 
9 | CC(=O)N1CCN(c2ccc(OCC3COC(Cn4ccnc4)(c4ccc(Cl)cc4Cl)O3)cc2)CC1 (stereo unspecified) [KETOCONAZOLE] |  |  |  |  |  |  | 25 mm | 18 mm | 18 mm | 30 mm
10 | CC1(C)S[C@@H]2[C@H](NC(=O)Cc3ccccc3)C(=O)N2[C@H]1C(=O)O [PENICILLIN G] |  |  |  |  |  |  | 12 mm | 26 mm | 18 mm | 14 mm
11 | C=C1[C@H](Cl)[C@@H]2OC(=O)[C@H](C)[C@]23O[C@@H]1[C@H](OC(C)=O)[C@H](OC(C)=O)[C@@]1(C)[C@@H](OC(C)=O)CC[C@]2(CO2)[C@@H]1[C@@H]3OC(C)=O [PRAELOLIDE] | > 50.1 µM | 15 mm | 11 mm | > 50.1 µM | inactive | 18 mm |  |  |  | 
12 | CN[C@@H]1[C@H](O[C@H]2[C@H](O[C@H]3[C@H](O)[C@@H](O)[C@H](N=C(N)N)[C@@H](O)[C@@H]3N=C(N)N)O[C@@H](C)[C@]2(O)C=O)O[C@@H](CO)[C@H](O)[C@H]1O [STREPTOMYCIN] |  |  |  |  |  |  | 11 mm | 18 mm | 11 mm | 16 mm
